# Data published in US8435997B2, “Cysteine prodrugs to treat schizophrenia and drug addiction” (Marquette University, priority 2007, dated 2013).
# Legend:
# [1] = system: PCP-evoked deficits in pre-pulse inhibition; assay: Prepulse inhibition of startle response, phencyclidine (PCP)-induced sensorimotor gating deficits; type: in vivo, rats; details: for sensorimotor gating (inhibition of startle response by pre-pulse) after PCP: rats, 30 mg/kg po, 60 min prior to PCP 1 mg/kg SC, pre-pulse 2-15 db above background, FIG. 2
# [2] = system: cocaine-induced reinstatement; assay: Extinction/reinstatement paradigm, cocaine-induced reinstatement of lever pressing; type: in vivo; details: rats, cocaine 10 mg/kg IP
# Description: The extinction/reinstatement paradigm represents one of the most common paradigms used to screen for potential anticraving properties of novel pharmacotherapies. In the present experiments, rats were implanted with indwelling jugular catheters with an external port affixed slightly posterior to the rat's shoulder blades. Tubing is used to connect a syringe of cocaine to the external port of the indwelling catheter. Rats are then placed into standard operant chambers (Med Associates) and permitted to press a lever for an infusion of cocaine (0.5 mg/kg/200 microL, IV). Once behavior is stable, rats are permitted at least eleven 2-hr sessions to self-administer cocaine. Afterwards, the cocaine solution is replaced with saline in order to extinguish lever pressing. Once responding decreases to 10 or fewer lever presses/2 hr sessions for 3 out of 4 daily sessions, rats are tested for reinstatement (relapse). To do this, rats are placed into the operant chamber and vehicle or a cysteine/cystine prodrug (1-60 mg/kg, p.o.; N=2-12) is administered. Afterwards, rats then receive an injection of cocaine (10 mg/kg, IP). Responding is then assessed for 120 min.
# [3] = system: extracellular glutamate in the prefrontal cortex; assay: Extracellular glutamate in the prefrontal cortex compared to baseline after prodrug administration; type: in vivo; details: rats; compound 7 30 mg/kg po (N=1) versus N-acetylcysteine 60 mg/kg IP (N=4); FIG. 1
# Experimental: FIG. 1 is a bar graph depicting extracellular glutamate in the prefrontal cortex (compared to baseline) following administration of cysteine prodrugs N-acetylcysteine (60 mg/kg, IP; N=4) or compound 7 (30 mg/kg, po; N=1) in rats. […] Compound 7 was given to the animal orally, and thereby subjected to potential first-pass metabolism. Conversely, N-acetylcysteine was given IP in order to avoid extensive first pass metabolism that would occur following oral administration. Thus, compound 7 produced a larger relative increase in glutamate in rats as compared to NAC even though NAC was given in its preferred route of administration and at twice the concentration.
smiles,measurement,setting,value
"CCOC1=NC(CS)C(OCC)=NC1 (centres unmarked) [Compound 5, (3,6-Diethoxy-2,5-dihydro-pyrazin-2-yl)-methanethiol]",sensorimotor gating as assessed by inhibition of a startle response after PCP,"[1]; 1 mg/kg orally 60 min prior to testing, PCP 0-1.25 mg/kg SC, FIG. 6",significant increase in sensorimotor gating
same,cocaine-induced reinstatement (responding),"[2]; 1 mg/kg p.o., FIG. 9",sufficient to block cocaine-induced reinstatement
"CCOC1=NC(CSSCC2N=C(OCC)CN=C2OCC)C(OCC)=NC1 (centres unmarked) [Compound 6, Bis[(3,6-Diethoxy-2,5-dihydro-pyrazin-2-yl)-methanethiol]]",restoration of sensorimotor gating after PCP,"[1]; oral administration (0-1 mg/kg) 60 min prior to testing, prepulse 2, 6, 15 dB above background, FIG. 7",significantly restored sensorimotor gating at the highest prepulse intensity
"O=C1CNC(=O)[C@H](CSSC[C@H]2NC(=O)CNC2=O)N1 [Compound 7, Bis[2,5-Piperazinedione, 3-(mercaptomethyl)-]]",peak increase in extracellular glutamate in the prefrontal cortex (compared to baseline),[3],much larger peak increase in glutamate
same,sensorimotor gating (inhibition of startle response by pre-pulse) after PCP,[1],significant improvement in sensorimotor gating relative to PCP controls and rats receiving NAC+PCP
CC(=O)N[C@@H](CS)C(=O)O [N-acetylcysteine],restoration of inhibition of a startle response after PCP,"[1]; infused directly into the rodent prefrontal cortex, 0-100 microM, FIG. 5",significantly restored inhibition of a startle response at each concentration tested
same,restoration of sensorimotor gating after PCP,"[1]; intraperitoneal injection 60 min prior to testing, three prepulse stimulus intensities, FIG. 4",failed to significantly restore sensorimotor gating at any of the three prepulse stimulus intensities
same,attenuation of deficits in prepulse inhibition produced by phencyclidine,"[1]; oral administration 60 min prior to testing, FIG. 3",fails to significantly attenuate deficits in prepulse inhibition
same,sensorimotor gating (inhibition of startle response by pre-pulse) after PCP,[1],trend toward improved sensorimotor gating (p=0.1)
same,cocaine-induced reinstatement (responding),"[2]; 30 and 60 mg/kg IP, responding over 120 min, FIG. 8",significant reduction in cocaine-induced reinstatement
same,cocaine-induced reinstatement (responding),"[2]; given orally, FIG. 9",less effective when given orally
